From PubChem BioAssay (NCI)
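1) Cells in 96-well plates. 2) Compound, 48 h, 5 concentrations. 3) Linear interpolation between surrounding doses. 4) Unreached endpoint = highest concentration. Definition used: TGI = concentration required for complete inhibition of growth.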

Key:
Experiment in all cases: DTP human tumour cell line panel, 48 h
OVCAR-4 ovarian = tested on: OVCAR-4 ovarian
DU-145 prostate = tested on: DU-145 prostate
ACHN renal = tested on: ACHN renal
A498 renal = tested on: A498 renal
SK-MEL-28 melanoma = tested on: SK-MEL-28 melanoma
BT-549 breast = tested on: BT-549 breast
EKVX NSCLC = tested on: EKVX NSCLC
SK-OV-3 ovarian = tested on: SK-OV-3 ovarian
HOP-92 NSCLC = tested on: HOP-92 NSCLC
UO-31 renal = tested on: UO-31 renal
LOX IMVI melanoma = tested on: LOX IMVI melanoma
OVCAR-3 ovarian = tested on: OVCAR-3 ovarian
HL-60(TB) leukemia = tested on: HL-60(TB) leukemia
MDA-MB-231 breast = tested on: MDA-MB-231 breast
RXF 393 renal = tested on: RXF 393 renal
SK-MEL-5 melanoma = tested on: SK-MEL-5 melanoma
SNB-19 CNS = tested on: SNB-19 CNS
UACC-257 melanoma = tested on: UACC-257 melanoma
786-0 renal = tested on: 786-0 renal
RPMI-8226 leukemia = tested on: RPMI-8226 leukemia
UACC-62 melanoma = tested on: UACC-62 melanoma
TK-10 renal = tested on: TK-10 renal
NCI/ADR-RES ovarian = tested on: NCI/ADR-RES ovarian
HCT-15 colon = tested on: HCT-15 colon
A549 NSCLC = tested on: A549 NSCLC
HOP-62 NSCLC = tested on: HOP-62 NSCLC
SN12C renal = tested on: SN12C renal
HT29 colon = tested on: HT29 colon
NCI-H460 lung = tested on: NCI-H460 lung
NCI-H23 lung = tested on: NCI-H23 lung
SK-MEL-2 melanoma = tested on: SK-MEL-2 melanoma
SF-295 CNS = tested on: SF-295 CNS
MDA-N = tested on: MDA-N
OVCAR-5 ovarian = tested on: OVCAR-5 ovarian
CAKI-1 renal = tested on: CAKI-1 renal
OVCAR-8 ovarian = tested on: OVCAR-8 ovarian
T-47D breast = tested on: T-47D breast
M14 melanoma = tested on: M14 melanoma
HCT-116 colon = tested on: HCT-116 colon
COLO 205 colon = tested on: COLO 205 colon
MOLT-4 leukemia = tested on: MOLT-4 leukemia
SW-620 colon = tested on: SW-620 colon
NCI-H226 lung = tested on: NCI-H226 lung
IGROV1 ovarian = tested on: IGROV1 ovarian
SR leukemia = tested on: SR leukemia
CCRF-CEM leukemia = tested on: CCRF-CEM leukemia
SF-539 CNS = tested on: SF-539 CNS
MDA-MB-435 = tested on: MDA-MB-435
HCC-2998 colon = tested on: HCC-2998 colon
MALME-3M melanoma = tested on: MALME-3M melanoma
SF-268 CNS = tested on: SF-268 CNS
PC-3 prostate = tested on: PC-3 prostate
MCF7 breast = tested on: MCF7 breast
HS 578T breast = tested on: HS 578T breast
KM12 colon = tested on: KM12 colon
U251 CNS = tested on: U251 CNS
NCI-H522 lung = tested on: NCI-H522 lung
K-562 leukemia = tested on: K-562 leukemia

`Cn1ncc(NCCn2cnc3c2c(=O)n(C)c(=O)n3C)c(Cl)c1=O` showed a TGI (OVCAR-4 ovarian) greater than 100 µM, a TGI (DU-145 prostate) greater than 100 µM and a TGI (ACHN renal) greater than 100 µM. It also gave a TGI (A498 renal) greater than 100 µM, a TGI (SK-MEL-28 melanoma) greater than 100 µM and a TGI (BT-549 breast) greater than 100 µM. The TGI (EKVX NSCLC) was greater than 100 µM, the TGI (SK-OV-3 ovarian) was greater than 100 µM and the TGI (HOP-92 NSCLC) was greater than 100 µM. It also gave a TGI (UO-31 renal) greater than 100 µM, a TGI (LOX IMVI melanoma) greater than 100 µM and a TGI (OVCAR-3 ovarian) greater than 100 µM. It also gave a TGI (HL-60(TB) leukemia) greater than 100 µM, a TGI (MDA-MB-231 breast) greater than 100 µM and a TGI (RXF 393 renal) greater than 100 µM. For the same compound, the TGI (SK-MEL-5 melanoma) was greater than 100 µM, the TGI (SNB-19 CNS) was greater than 100 µM and the TGI (UACC-257 melanoma) was greater than 100 µM. For the same compound, the TGI (786-0 renal) was greater than 100 µM, the TGI (RPMI-8226 leukemia) was greater than 100 µM and the TGI (UACC-62 melanoma) was greater than 100 µM. The TGI (TK-10 renal) was greater than 100 µM, the TGI (NCI/ADR-RES ovarian) was greater than 100 µM and the TGI (HCT-15 colon) was greater than 100 µM. It also gave a TGI (A549 NSCLC) greater than 100 µM, a TGI (HOP-62 NSCLC) greater than 100 µM and a TGI (SN12C renal) greater than 100 µM. The TGI (HT29 colon) was greater than 100 µM, the TGI (NCI-H460 lung) was greater than 100 µM and the TGI (NCI-H23 lung) was greater than 100 µM. The TGI (SK-MEL-2 melanoma) was greater than 100 µM, the TGI (SF-295 CNS) was greater than 100 µM and the TGI (MDA-N) was greater than 100 µM. It also gave a TGI (OVCAR-5 ovarian) greater than 100 µM, a TGI (CAKI-1 renal) greater than 100 µM and a TGI (OVCAR-8 ovarian) greater than 100 µM. For the same compound, the TGI (T-47D breast) was greater than 100 µM, the TGI (M14 melanoma) was greater than 100 µM and the TGI (HCT-116 colon) was greater than 100 µM. The TGI (COLO 205 colon) was greater than 100 µM, the TGI (MOLT-4 leukemia) was greater than 100 µM and the TGI (SW-620 colon) was greater than 100 µM. For the same compound, the TGI (NCI-H226 lung) was greater than 100 µM, the TGI (IGROV1 ovarian) was greater than 100 µM and the TGI (SR leukemia) was greater than 100 µM. For the same compound, the TGI (CCRF-CEM leukemia) was greater than 100 µM, the TGI (SF-539 CNS) was greater than 100 µM and the TGI (MDA-MB-435) was greater than 100 µM. It also gave a TGI (HCC-2998 colon) greater than 100 µM, a TGI (MALME-3M melanoma) greater than 100 µM and a TGI (SF-268 CNS) greater than 100 µM. It also gave a TGI (PC-3 prostate) greater than 100 µM, a TGI (MCF7 breast) greater than 100 µM and a TGI (HS 578T breast) greater than 100 µM. For the same compound, the TGI (KM12 colon) was greater than 100 µM, the TGI (U251 CNS) was greater than 100 µM and the TGI (NCI-H522 lung) was greater than 100 µM. For the same compound, the TGI (K-562 leukemia) was greater than 100 µM.
With `CCN1C(Cl)=NS(=O)(=O)c2ccccc21` the TGI (OVCAR-4 ovarian) was 47.8 µM, the TGI (DU-145 prostate) was greater than 100 µM and the TGI (ACHN renal) was 34.1 µM. For the same compound, the TGI (A498 renal) was 44.6 µM, the TGI (SK-MEL-28 melanoma) was greater than 100 µM and the TGI (BT-549 breast) was 44 µM. For the same compound, the TGI (EKVX NSCLC) was 53.7 µM, the TGI (SK-OV-3 ovarian) was greater than 100 µM and the TGI (HOP-92 NSCLC) was 42.1 µM. For the same compound, the TGI (UO-31 renal) was 32.1 µM, the TGI (LOX IMVI melanoma) was 36.7 µM and the TGI (OVCAR-3 ovarian) was 34.8 µM. It also gave a TGI (HL-60(TB) leukemia) of 87.2 µM, a TGI (MDA-MB-231 breast) of 65.1 µM and a TGI (RXF 393 renal) of 32.2 µM. For the same compound, the TGI (SK-MEL-5 melanoma) was 33.1 µM, the TGI (SNB-19 CNS) was greater than 100 µM and the TGI (UACC-257 melanoma) was 80.8 µM. For the same compound, the TGI (786-0 renal) was 64.6 µM, the TGI (UACC-62 melanoma) was 25.6 µM and the TGI (TK-10 renal) was 37 µM. For the same compound, the TGI (NCI/ADR-RES ovarian) was 85.2 µM, the TGI (HCT-15 colon) was 35.2 µM and the TGI (A549 NSCLC) was greater than 100 µM. For the same compound, the TGI (HOP-62 NSCLC) was 70.1 µM, the TGI (SN12C renal) was 37.9 µM and the TGI (HT29 colon) was greater than 100 µM. The TGI (NCI-H460 lung) was 64.7 µM, the TGI (NCI-H23 lung) was 52.5 µM and the TGI (SK-MEL-2 melanoma) was greater than 100 µM. It also gave a TGI (SF-295 CNS) greater than 100 µM, a TGI (MDA-N) greater than 100 µM and a TGI (OVCAR-5 ovarian) of 76 µM. The TGI (CAKI-1 renal) was 4.31 µM, the TGI (OVCAR-8 ovarian) was greater than 100 µM and the TGI (T-47D breast) was 78.6 µM. For the same compound, the TGI (M14 melanoma) was 32.8 µM, the TGI (HCT-116 colon) was 74 µM and the TGI (COLO 205 colon) was 32.5 µM. The TGI (MOLT-4 leukemia) was greater than 100 µM, the TGI (SW-620 colon) was greater than 100 µM and the TGI (NCI-H226 lung) was 55.7 µM. It also gave a TGI (IGROV1 ovarian) greater than 100 µM, a TGI (SR leukemia) greater than 100 µM and a TGI (CCRF-CEM leukemia) of 81 µM. For the same compound, the TGI (SF-539 CNS) was 35.9 µM, the TGI (MDA-MB-435) was greater than 100 µM and the TGI (HCC-2998 colon) was 45.7 µM. It also gave a TGI (SF-268 CNS) greater than 100 µM, a TGI (PC-3 prostate) greater than 100 µM and a TGI (MCF7 breast) greater than 100 µM. The TGI (HS 578T breast) was greater than 100 µM, the TGI (KM12 colon) was greater than 100 µM and the TGI (U251 CNS) was greater than 100 µM. For the same compound, the TGI (NCI-H522 lung) was 24.6 µM and the TGI (K-562 leukemia) was 39.3 µM.
